# Data from patent publication US7572765B2, “Conformationally constrained parathyroid hormone (PTH) analogs” (The General Hospital Corporation, priority 2001, dated 2009).
# Square brackets hold non-standard residues; d marks the D form. Peptide text beside a SMILES is read from it. hArg = N=C(N)NCCCC[C@H](N)C(=O)O; Aib = CC(C)(N)C(=O)O
# How the values were obtained:
# human P1R = target: T1, human P1R (Homo sapiens, UniProt Q03431); experiment: Competition binding in HKRK-B28 cells; conditions: HKRK-B28 cells; for IC50 / Binding IC50: tracer 125I-[M]PTH(1-21)amide, 4 h at 4° C., N.B. = no binding detected at 10 μm peptide
# T1 construct: expressed in transfected cells; host or cells: HKRK-B28 (porcine kidney LLC-PK1, stably transfected)
# T1 sequence (Q03431 27-593): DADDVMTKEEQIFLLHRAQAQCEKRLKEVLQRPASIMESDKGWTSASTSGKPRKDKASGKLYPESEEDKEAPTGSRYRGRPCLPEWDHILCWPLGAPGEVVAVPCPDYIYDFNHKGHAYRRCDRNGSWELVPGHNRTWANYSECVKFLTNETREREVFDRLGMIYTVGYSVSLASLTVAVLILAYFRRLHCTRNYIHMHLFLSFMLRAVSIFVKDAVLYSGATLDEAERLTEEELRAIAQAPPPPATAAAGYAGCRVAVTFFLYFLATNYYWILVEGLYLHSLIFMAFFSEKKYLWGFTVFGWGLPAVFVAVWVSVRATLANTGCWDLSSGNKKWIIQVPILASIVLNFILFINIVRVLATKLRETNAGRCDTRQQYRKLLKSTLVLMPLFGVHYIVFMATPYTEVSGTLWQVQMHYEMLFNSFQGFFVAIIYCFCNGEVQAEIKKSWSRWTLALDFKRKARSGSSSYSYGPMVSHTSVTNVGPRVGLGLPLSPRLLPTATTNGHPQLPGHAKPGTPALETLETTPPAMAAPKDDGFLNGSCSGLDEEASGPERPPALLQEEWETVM
# Method: (§1) Cell Culture. The cell line HKRK-B28 (Takasu, H., et al., J. Bone Miner. Res. 14:11-20 (1999)) was derived from the porcine kidney cell line, LLC-PK1 by stable transfection with plasmid DNA encoding the human P1R and expresses ˜280,000 receptors per cell. These cells, as well as COS-7 cells and SaOS-2-B10 cells, were cultured at […] in T-75 flasks ([…]) in Dulbecco's modified Eagle's medium (DMEM) supplemented with fetal bovine serum (10%), penicillin G (20 units/ml), streptomycin sulfate (20 μg/ml) and amphotericin B (0.05 μg/ml) in a humidified atmosphere containing 5% CO2. Stock solutions of EGTA/trypsin and antibiotics were from GIBCO; fetal bovine serum was from Hyclone Laboratories (Logan, Utah). COS-7 cells sub-cultured in 24-well plates were transfected with plasmid DNA (200 ng per well) encoding the wild-type human P1R or truncated human P1R deleted for residues (24-181) (Shimizu, M., et al., J. Biol. Chem. 275:21836-21843 (2000)) that was purified by cesium chloride/ethidium bromide density gradient centrifugation, and FuGENE 6 transfection reagent (Roche Indianapolis Ind.) according to the manufacturer's recommended procedure. All cells, in 24-well plates, were treated with fresh media and shifted to 33° C. for 12 to 24 h prior to assay.
# (§2) Competition Binding. Binding reactions were performed with HKRK-B28 cells or in COS-7 cells in 24-well plates. The cells were rinsed with 0.5 mL of binding buffer, and then treated successively with 100 μL binding buffer, 100 μL of binding buffer containing various amounts of unlabeled competitor ligand, and 100 μL of binding buffer containing ca. 100,000 cpm of ^125I-[M]PTH(1-21) or ^125I-[Aib^1,3,M]PTH(1-21)} (ca. 26 fmol; final volume=300 μL). Incubations were 4 to 6 h at 4° C., at which time near equilibrium conditions were attained. Cells were then placed on ice, the binding medium was removed, and the monolayer was rinsed three times with 0.5 mL of cold binding buffer. The cells were subsequently lysed with 0.5 mL […] and counted for radioactivity. For each tracer and in each experiment, the non-specific binding was determined as the radioactivity that bound in the presence of the same unlabeled peptide at a concentration of 1 μM, and was ˜1% of total radioactivity added for each tracer. The maximum specific binding (B0) was the total radioactivity bound in the absence of competing ligand, corrected for nonspecific binding, and for each tracer, ranged from 8% to 20% of the total radioactivity added. Nonlinear regression was used to calculate binding IC50 values (see below). Scatchard transformations of homologous competition binding data derived from studies with 26 fmol of ^125I-[Aib^1,3,M]PTH(1-21) were employed for estimations of apparent equilibrium dissociation constant (kDapps) and total number of ligand binding sites (Bmax), assuming a single class of binding sites and equal affinities of the iodinated and non iodinated ligand.
# Data Calculation. Calculations were performed using Microsoft® Excel. Nonlinear regression analyses of binding and cAMP dose-response data were performed using the four-parameter equation: yp=Min+[(Max−Min)/(1+(IC50/x)^slope)]. The Excel Solver function was utilized for parameter optimization, as described previously (Carter, P. H., et al., Endocrinology 140: 4972-4981 (1999); Bowen, W. P., and Jerman, J. C., Trends in Pharmacol. Sci. 16: 413-417 (1995)). Differences between paired data sets were statistically evaluated using a one-tailed Student's t-test, assuming unequal variances for the two sets.
# The P1R-binding properties of these analogs were assayed in competition studies performed in […]. In previous studies, PTH(1-14) binding could not be detected using ^125I-PTH(1-34) and related N-terminally intact and relatively unmodified radioligands (Luck, M. D., et al., Molecular Endocrinology 13:670-680 (1999)). […]
# [1] = target: T2, wild-type human P1R (hP1R-WT) (Homo sapiens, UniProt Q03431); experiment: Competition binding in COS-7 cells expressing hP1R-WT
# T2 construct: expressed in transfected cells; host or cells: COS-7 (transient, FuGENE 6)
# T2 sequence (Q03431 27-593): T1 sequence (Q03431 27-593)
# Method: as §1, §2
# Data Calculation. Calculations were performed using Microsoft® Excel. Nonlinear regression analyses of binding and cAMP dose-response data were performed using the four-parameter equation: yp=Min+[(Max−Min)/(1+(IC50/x)^slope)]. […] Differences between paired data sets were statistically evaluated using a one-tailed Student's t-test, assuming unequal variances for the two sets. […]
# [2] = COS-7 cells, hP1R-WT, tracer 125I-[Aib^1,3,M]PTH(1-21), N.B. = no inhibition of tracer binding
compound,measurement,setting,value
"CCCC[C@H](NC(=O)[C@H](CCCNC(=N)N)NC(=O)[C@H](CCC(=O)O)NC(=O)[C@@H](NC(=O)[C@H](CO)NC(=O)[C@H](C)NC(=O)[C@H](CC(C)C)NC(=O)[C@H](Cc1c[nH]cn1)NC(=O)[C@H](CCCCN)NC(=O)CNC(=O)[C@H](CC(C)C)NC(=O)[C@H](CC(N)=O)NC(=O)[C@H](Cc1c[nH]cn1)NC(=O)[C@H](CCCC)NC(=O)[C@H](CC(C)C)NC(=O)[C@H](CCC(N)=O)NC(=O)[C@@H](NC(=O)[C@H](CCC(=O)O)NC(=O)[C@H](CO)NC(=O)[C@@H](NC(=O)[C@H](C)N)C(C)C)[C@@H](C)CC)C(C)C)C(=O)N[C@@H](CCC(N)=O)C(=O)N[C@@H](Cc1c[nH]c2ccccc12)C(=O)N[C@@H](CC(C)C)C(=O)N[C@@H](CCCNC(=N)N)C(=O)N[C@@H](CCCCN)C(=O)N[C@@H](CCCCN)C(=O)N[C@@H](CC(C)C)C(=O)N[C@@H](CCC(N)=O)C(=O)N[C@@H](CC(=O)O)C(=O)N[C@H](C(=O)N[C@@H](Cc1c[nH]cn1)C(=O)N[C@@H](CC(N)=O)C(=O)N[C@@H](Cc1ccc(O)cc1)C(N)=O)C(C)C [PTH(1-34), [Nle^8,21, Tyr^34]PTH(1-34)amide, reference compound]",IC50,human P1R,1.8e-08 ± 3e-09 M
"CC[C@H](C)[C@H](NC(=O)[C@H](CCC(=O)O)NC(=O)C(C)(C)NC(=O)[C@@H](NC(=O)C(C)(C)N)C(C)C)C(=O)N[C@@H](CCC(N)=O)C(=O)N[C@@H](CC(C)C)C(=O)N[C@@H](CCSC)C(=O)N[C@@H](Cc1c[nH]cn1)C(=O)N[C@@H](CCC(N)=O)C(N)=O [[Aib^1,3,M]PTH(1-10), [Aib^1,3,Gln^10]PTH(1-10)] (H-[Aib]V[Aib]EIQLMHQ-NH2)",Binding IC50,[1]; [2],N.B.
same,Binding IC50,human P1R,did not bind detachably
same,Binding IC50,human P1R; M]PTH (1-10),N.B.
"CC[C@H](C)[C@H](NC(=O)[C@H](CCC(=O)O)NC(=O)C(C)(C)NC(=O)[C@@H](NC(=O)C(C)(C)N)C(C)C)C(=O)N[C@@H](CCC(N)=O)C(=O)N[C@@H](CC(C)C)C(=O)N[C@@H](CCSC)C(=O)N[C@@H](Cc1c[nH]cn1)C(=O)N[C@@H](CCC(N)=O)C(=O)N[C@@H](CCCCNC(=N)N)C(N)=O [[Aib^1,3,M]PTH(1-11), AibValAibGluIleGlnLeuMetHisGlnHar] (H-[Aib]V[Aib]EIQLMHQ[hArg]-NH2)",IC50,[1]; [2],16 µM
same,IC50,human P1R,9.7e-07 ± 3e-07 M
"CC[C@H](C)[C@H](NC(=O)[C@H](CCC(=O)O)NC(=O)C(C)(C)NC(=O)[C@@H](NC(=O)C(C)(C)N)C(C)C)C(=O)N[C@@H](CCC(N)=O)C(=O)N[C@@H](CC(C)C)C(=O)N[C@@H](CCSC)C(=O)N[C@@H](Cc1c[nH]cn1)C(=O)N[C@@H](CCC(N)=O)C(=O)N[C@@H](CCCCNC(=N)N)C(=O)N[C@@H](C)C(=O)N[C@@H](CCCCN)C(=O)N[C@@H](Cc1c[nH]c2ccccc12)C(N)=O [[Aib^1,3,M]PTH(1-14), AibValAibGluIleGlnLeuMetHisGlnHarAlaLysTrp] (H-[Aib]V[Aib]EIQLMHQ[hArg]AKW-NH2)","binding affinity, fold stronger than [M]PTH(1-14)",[1]; P1R-WT,~10 fold
same,fold improvement of apparent binding affinity relative to [M]PTH(1-14),human P1R,100 fold
same,fold improvement of apparent binding affinity relative to [M]PTH(1-14),"human P1R; listed as Aib-1,3",approximately 100 fold
same,IC50,human P1R,1.3e-07 ± 2e-08 M
"H-AVSEIQLMHNLGKH-NH2 [PTH(1-14), reference compound]",Binding IC50,[1]; [2],N.B.
